The record followed here is patent US9180107B2 (NANOPHARMACEUTICALS LLC, priority 2009, dated 2015).

The test system of test [1] is Human adenoid cystic carcinoma TGS112T cells. In words: [3H]-thymidine incorporation. Particulars: 10^−7 M, 24 h. It counts as cell-based. As for the experimental part: TGS112T cells were seeded in 24-well trays and exposed to 10% hormone-depleted FBS-supplemented medium for 2 d, then treated with 0.25% hormone-depleted FBS-supplemented medium prior to starting the experiments. Aliquots of cells were treated with T4, tetrac or nano-tetrac as indicated, as well as 1 μCi [^3H]-thymidine (final concentration, 13 nM) for 24 h. Cells were then washed twice with cold PBS. TCA (5%, 1 mL) was added and the plate was held at 4° C. for 30 min. The precipitate was washed twice with cold ethanol; 2% SDS (1 mL) was added to each well and the TCA-precipitable radioactivity was quantitated in a liquid scintillation counter.
(§1) Human adenoid cystic carcinoma TGS112T cells were cultured in medium that contained 0.25% hormone-stripped serum for 2 d and then treated with 10^−7 M tetrac or nano-tetrac for 30 min prior institution of 10^−7 M T4 treatment for 24 h. Nuclear proteins were separated by SDS-PAGE followed by western blot analysis with proliferating-cell nuclear antigen (PCNA) antibody. Thyroid hormone-induced PCNA accumulation was inhibited by tetrac. (See FIG. 6A). […] (See FIG. 6A). Inhibition of thyroid hormone-induced proliferation was confirmed by inhibition by tetrac and nano-tetrac of thyroid hormone-induced accumulation and [^3H]-thymidine incorporation. (See FIG. 6B). […] (See FIG. 6B). […] The effect of nano-tetrac and tetrac on cell proliferation was examined by counting TGS112T cells which were treated daily with 10^−6 M tetrac or 10^−6 M nano-tetrac. […] (See FIG. 6C).
(Uptake of a labelled nucleoside into DNA is a usual measure of proliferation.)

Test [2] shares this test system. In words: PCNA western blot (thyroid hormone-induced proliferation). It counts as cell-based. To be noted: 10^−7 M, 24 h.
Source text: The techniques have been described in a number of publications. (See Davis et al., 2006. Cancer Res. 66:7270-7275; Lin et al., 2007. Steroids. 72:180-187; Lin et al., 2008. Carcinogenesis. 29:62-69; and Davis et al., 2004. Circ Res. 94:1500-1506, each of which is herein incorporated by reference in its entirety). Nucleoproteins were separated on discontinuous SDS-PAGE (9% gels) and the proteins transferred by electroblotting to nitrocellulose membranes (Millipore, Bedford, Mass.). After blocking with 5% milk in Tris-buffered saline containing 0.1% Tween, the membranes were incubated with selected primary antibodies overnight. The secondary antibodies were either goat anti-rabbit IgG (1:1000, Dako, Carpenteria, Calif.) or rabbit anti-mouse IgG (1:1000, Dako), depending upon the origin of the primary antibody. Immunoreactive proteins were then detected by chemiluminescence.
as §1
(In general: In western blotting, separated proteins are transferred to a membrane and probed.)

Turning to `N[C@@H](Cc1cc(I)c(Oc2cc(I)c(O)c(I)c2)c(I)c1)C(=O)O` [T4, L-thyroxine, reference compound], the “effect of agent alone on thymidine incorporation” value in test [1] was “increased thymidine incorporation”. In addition, the “Proliferation of TGS112T cells (agent alone)” value in test [2] is listed as “stimulated”.
